This assay has as its system Trypanosoma brucei brucei. In words: microbe, parasite or virus in culture. It counts as functional, organism-based, STIB 795. As to conditions: Trypanosoma brucei, STIB 795.
Description: DNDI: Inhibition of Human African Trypanosomiasis (HAT), STIB 795, in vitro
As usually defined, the IC50 is the concentration at which inhibition is half-maximal. A lower IC50 goes with greater potency. The molecule `CN(C)S(=O)(=O)c1ccc2nc(NC(=O)c3cccs3)sc2c1` yielded an IC50 of more than 10.4 µM.

`CCOc1cc2c(cc1OCC)C(c1ccccc1)N(c1ccccc1)C(=O)C2` (stereo not drawn) registered an IC50 of more than 10.4 µM.

`COc1cccc(C(=O)Nc2ccc3nc(N4CCOCC4)cc(C)c3c2)c1` displayed an IC50 of more than 10.4 µM.

Regarding `CCOC(=O)c1ccc(Nc2nc(-c3cccnc3)nc3ccccc23)cc1`, the IC50 was more than 10.4 µM.

For the molecule `CN(C)S(=O)(=O)c1ccc(C(=O)Nc2nnc(-c3cccs3)o2)cc1`, the IC50 is more than 10.4 µM.

For the molecule `CCCCCn1c(C(Cc2ccccc2)NC(=O)COC)nc2ccccc21` (stereo not drawn), the IC50 is more than 10.4 µM.

In turn, `COc1ccccc1CCNCc1ccc(OC)c(OCc2ccccc2)c1` gave an IC50 of more than 10.4 µM.

On to `CCN1CCN(c2cc(C)c3cc(NC(=O)c4cccs4)ccc3n2)CC1`, for which the IC50 was more than 10.4 µM.

In turn, `COC(=O)c1cc(NC(=O)Nc2ccc3snnc3c2)cc(C(=O)OC)c1` registered an IC50 of more than 10.4 µM.

`CCOc1cccc(CNCCO)c1OCc1ccc(Cl)cc1Cl`: the IC50 is more than 10.4 µM.

`CN1CCC(Oc2ccccc2Sc2ccc(C(F)(F)F)cc2)CC1` yielded an IC50 of more than 10.4 µM.

`Fc1ccc(C(OCCN2CCCC2)c2ccc(Br)cc2)cc1` (stereo not drawn): the concentration for half-maximal inhibition (IC50) is more than 10.4 µM.

For the molecule `CN1CCN(C2Cc3ccccc3Sc3cc(C(F)(F)F)ccc32)CC1` (stereo not drawn), the IC50 is more than 10.4 µM.

`CCn1cc(C(=O)N(C)c2ccccc2F)c2cc(OC)c(OC)cc2c1=O` showed an IC50 of more than 10.4 µM.

Turning to `N=c1n(Cc2ccccc2Cl)c2ccccc2n1CC(O)c1ccco1` (stereo not drawn), the IC50 was more than 10.4 µM.

`CC[n+]1c(/C=C2\Sc3ccccc3N2CCC(=O)O)sc2ccccc21` returned an IC50 of more than 10.4 µM.

Consider `CSc1ccc(/C=C2\CN(C)C/C(=C\c3ccc(SC)cc3)C2=O)cc1`, for which the IC50 is more than 10.4 µM.

The molecule `OC(COCc1ccc(Cl)cc1)CN1CCC(Cc2ccccc2)CC1` (stereo not drawn) registered a half-inhibitory concentration (IC50) of more than 10.4 µM.

The molecule `CC(C)(C)c1cc(C(c2ccncc2)N2CCCC2)cc(C(C)(C)C)c1O` (stereo not drawn) returned an IC50 of more than 10.4 µM.

Take `CC1CN(C(=O)c2ccc(COc3ccc(C(C)C)cc3)cc2)CC(C)O1` (stereo not drawn): the IC50 was more than 10.4 µM.

`O=C(Nc1ccc(Cl)c(-c2nc3ncccc3o2)c1)c1cccc(F)c1` yielded an IC50 of more than 10.4 µM.

`COC(=O)C1=C(C)N(c2ccccc2)/C(=C/c2cccc3ccccc23)C1=O` had an IC50 of more than 10.4 µM.

On to `CCN(CC)C(=O)c1ccc(Nc2ccnc3cc4ccccc4cc23)cc1`, for which the IC50 is more than 10.4 µM.

The molecule `O=C(N/N=C/c1cc(Cl)cc(Br)c1O)c1ccccc1O` showed an IC50 of more than 10.4 µM.

In turn, `Cn1c(NC(=O)c2ccccc2NC(=O)c2ccccc2)nc2ccccc21` displayed an IC50 of more than 10.4 µM.

The molecule `CN(C)c1ccc(C2(c3ccc(N(C)C)cc3)C=Cc3ccccc3O2)cc1` showed an IC50 of more than 10.4 µM.

Turning to `CCC(=O)N1CCN(c2oc(/C=C/c3ccc(Cl)cc3)nc2C#N)CC1`, the IC50 was more than 10.4 µM.

Take `CNC(=O)c1c[nH]c2ccc(S(=O)(=O)Nc3ccccc3C)cc2c1=O`: the IC50 is more than 10.4 µM.

Take `Cn1c(=O)sc2cc(S(=O)(=O)Nc3cccc4cccnc34)ccc21`: the IC50 is more than 10.4 µM.

The molecule `COc1ccc(C(CC(=O)c2ccco2)SCc2ccco2)cc1OC` (stereo not drawn) displayed an IC50 of more than 10.4 µM.

Regarding `Cc1ccc(C(CNC(=O)COc2ccc(Cl)cc2)N2CCCC2)cc1` (stereo not drawn), the IC50 is more than 10.4 µM.

`O=C(Nc1nc(-c2ccncc2)cs1)c1ccc(Oc2ccccc2)cc1` gave an IC50 of more than 10.4 µM.

Molecule `CSc1ccc(C(Nc2ccccn2)c2ccc3cccnc3c2O)cc1` (stereo not drawn) registered an IC50 of more than 10.4 µM.

For the molecule `CC1CC(OCC(O)CN2CCC(Cc3ccccc3)CC2)CC(C)(C)C1` (stereo not drawn), the IC50 is more than 10.4 µM.

For `O=C(/C=C/c1ccccc1)Nc1c(-c2ccccc2)nc2ccc(Cl)cn12`, the IC50 is more than 10.4 µM.

On to `OC(c1ccc(Cl)s1)(c1ccc(Cl)s1)C1CN2CCC1CC2` (stereo not drawn), for which the IC50 was more than 10.4 µM.

In turn, `Cc1ccc(-c2csc3ncnc(N/N=C/c4cc(C)ccc4O)c23)cc1` returned an IC50 of more than 10.4 µM.

In the case of `C/C(=C\c1nsc(Nc2ccc(F)c(Cl)c2)n1)Nc1ccc(C)cc1`, the IC50 is more than 10.4 µM.

`O=c1oc2c(cc(NS(=O)(=O)c3ccc(F)cc3)c3ccccc32)s1` yielded an IC50 of more than 10.4 µM.

In turn, `OC(C#CCN1CCOCC1)(c1ccc(Cl)cc1)c1cccc(Cl)c1` (stereo not drawn) came in with an IC50 of more than 10.4 µM.

As for `OCCNCc1c(OCc2ccc(Cl)cc2Cl)ccc2ccccc12`, the IC50 is more than 10.4 µM.

As to `COC(=O)c1cc(-c2ccccc2)nc2c1C(=O)C(=O)C=C2N1CCCCC1`, the IC50 was more than 10.4 µM.

`CC(C)CNC(=O)Nc1cccc(-c2noc(C3(c4ccccc4)CC3)n2)c1` returned an IC50 of more than 10.4 µM.

With `CN(C)c1ccc(C(Nc2nccs2)c2ccc3cccnc3c2O)cc1` (stereo not drawn), the IC50 is more than 10.4 µM.

Molecule `CCN1c2ccccc2NC2=C(C(=O)CC(C)(C)C2)C1c1ccc(OC)cc1` (stereo not drawn) registered an IC50 of more than 10.4 µM.

The molecule `OC(CNCCc1ccccc1)CN1c2ccccc2Sc2ccccc21` (stereo not drawn) yielded an IC50 of more than 10.4 µM.

`O=C(N/N=C\c1ccc(-c2cccc(Cl)c2Cl)o1)c1ccc(F)cc1`: the IC50 is more than 10.4 µM.

Regarding `N#Cc1cc(C#N)c(SCC(=O)Nc2cccc(C(F)(F)F)c2)nc1N`, the IC50 is more than 10.4 µM.

`C=CCN1C(=O)c2[nH]nc(-c3c(C)cc(C)cc3O)c2C1c1ccc(F)cc1` (stereo not drawn) displayed an IC50 of more than 10.4 µM.

`Cc1ccc(Nc2cc(C)nc(N3CCN(C(=O)c4ccco4)CC3)n2)cc1` registered a 50% inhibitory concentration (IC50) of more than 10.4 µM.

`COc1cccc(/C=C2/CN(C(C)C)C/C(=C\c3cccc(OC)c3)C2=O)c1`: the IC50 was more than 10.4 µM.

Molecule `CCOc1cccc(/C=N/NC(=O)c2cc(-c3ccc(CC)cc3)n[nH]2)c1O` showed an IC50 of more than 10.4 µM.

Turning to `OCCN1CCN(Cc2ccccc2Sc2ccc3ccccc3c2)CC1`, the IC50 is more than 10.4 µM.

`CC1CCN(Cc2cc(CSc3ccccc3)c3cccnc3c2O)CC1` registered an IC50 of more than 10.4 µM.

Regarding `O=C(Nc1ccccc1C(=O)N/N=C/c1ccccn1)c1ccc(Cl)cc1`, the IC50 was more than 10.4 µM.

`Cc1c(-c2cc(Cl)cc(-c3ccc(F)cc3)c2)ccc2nc(N)nc(N)c12` returned an IC50 of more than 10.4 µM.

The molecule `COc1ccc(C(=O)O/N=C(\N)c2ccc(Br)cc2)c(OC)c1` returned an IC50 of more than 10.4 µM.

Molecule `Clc1ccc(Nc2nc3nonc3nc2NC2CCCCC2)cc1Cl` showed an IC50 of more than 10.4 µM.

`Cc1cc(C)c(C(=O)CC(SCC(=O)OC(C)C)C(F)(F)F)c(=O)[nH]1` (stereo not drawn) showed an IC50 of more than 10.4 µM.

As to `CCC(=O)Nc1nc2ccc(NS(=O)(=O)c3ccccc3F)cc2s1`, the IC50 is more than 10.4 µM.

`CCCCOC(=O)c1ccc(NC(=O)c2ccc(C3CCCCC3)cc2)cc1` yielded a half-maximal inhibitory concentration (IC50) of more than 10.4 µM.

Take `Cc1ccccc1-c1cc(N2CCN(C(=O)NC3CCCCC3)CC2)ncn1`: the IC50 was more than 10.4 µM.

Molecule `CN(C)c1ccc(/C=N/Nc2cc(N3CCCC3)nc(N3CCCC3)n2)cc1` had an IC50 of more than 10.4 µM.

For the molecule `O=C(O)c1ccc(NC(CC(=O)c2ccc(Cl)cc2)c2ccccc2)cc1` (stereo not drawn), the IC50 is more than 10.4 µM.

Turning to `O=C(CC(SCc1ccco1)c1ccc(C(F)(F)F)cc1)c1ccco1` (stereo not drawn), the IC50 is more than 10.4 µM.

The molecule `COC(=O)c1ccc2c(c1)C(C)(C)C(/C=C/c1cccc(OC)c1OC)=[N+]2C` came in with an IC50 of more than 10.4 µM.

In the case of `COc1ccc(S(=O)(=O)C(CC(=O)c2ccccc2)c2ccccc2)cc1` (stereo not drawn), the IC50 is more than 10.4 µM.

Consider `O=C1N=C(Nc2cccc(Cl)c2Cl)S/C1=C\c1ccc(O)c(O)c1`, for which the IC50 was more than 10.4 µM.

With `C/C(=N/NC(=O)c1cc(-c2ccccc2)nc2ccccc12)c1ccccc1O`, the IC50 is more than 10.4 µM.

For `CCOC(=O)c1c(-c2cccs2)csc1NC(=O)C#Cc1ccccc1`, the IC50 is more than 10.4 µM.

On to `Cc1cccc(C(=O)N2CCN(c3cc(N4CCOCC4)nc(C)n3)CC2)c1`, for which the IC50 is more than 10.4 µM.

In turn, `CN(C)c1ccc(C(=O)NN=C2C=C(C(C)(C)C)C(=O)C(C(C)(C)C)=C2)cc1` yielded an IC50 of more than 10.4 µM.

`COc1ccccc1NC(=S)N/N=C/c1cccn1Cc1ccccc1F`: the IC50 is more than 10.4 µM.

With `CSC1C(c2ccc(F)cc2)=NN(C(=O)Nc2ccc(C#N)cc2)C1(C)C` (stereo not drawn), the IC50 is more than 10.4 µM.

On to `COc1ccc(CN2CCc3nc(N4CCC(C)CC4)ncc3C2)c(OC)c1`, for which the IC50 is more than 10.4 µM.

`CN(C)c1ccc(N=c2cc(-c3ccccc3)sc(-c3ccccc3)c2)cc1`: the IC50 is more than 10.4 µM.

The molecule `C/C(=N/OC(=O)c1ccc(Cn2nc(C)c(Cl)c2C)cc1)c1ccccn1` registered an IC50 of more than 10.4 µM.

`O=C(CCCOc1ccc(Cl)cc1Cl)N/N=C/c1ccc(O)cc1O` displayed an IC50 of more than 10.4 µM.

`COc1ccc(CC(=O)Nc2sc3c(c2C#N)CC(C)(C)NC3(C)C)cc1` came in with an IC50 of more than 10.4 µM.

Molecule `CCOC(=O)c1cnc2c(CC)cccc2c1NC1CC(C)(C)NC(C)(C)C1` gave an IC50 of more than 10.4 µM.

In turn, `COc1cc(NC(=O)Nc2ccc(-c3noc(C)n3)cc2)cc(OC)c1OC` returned an IC50 of more than 10.4 µM.

As to `CCN(CC)S(=O)(=O)c1cccc(N/N=C2\C=CC(=O)c3cccnc32)c1`, the IC50 was more than 10.4 µM.

`CCOC(=O)c1ccc(NC(=O)NC23CC4(C)CC(C)(CC(C)(C4)C2)C3)cc1`: the IC50 is more than 10.4 µM.

`Cn1ccnc1-c1c(-c2ccc(Cl)cc2)nc(-c2ccc(Cl)cc2)n1O` registered an IC50 of more than 10.4 µM.

`CCC(=C\C1=[N+](C)c2ccccc2C1(C)C)/C=C1/N(C)c2ccccc2C1(C)C`: the IC50 was more than 10.4 µM.

On to `CN(C)CCNC(=O)c1ccc2c(c1)NC(=O)/C(=C/c1ccccc1Cl)O2`, for which the IC50 is more than 10.4 µM.

Molecule `CCCN1CCN(c2ncc3c(n2)CCN(Cc2ccccc2Cl)C3)CC1` displayed an IC50 of more than 10.4 µM.

`CC(=O)N(C)c1ccc(/N=C2/C(=O)Nc3cc(Br)c(C)cc32)cc1`: the IC50 was more than 10.4 µM.

`CC(C)N1C/C(=C\c2cccc(Cl)c2)C(=O)/C(=C/c2cccc(Cl)c2)C1` displayed an IC50 of more than 10.4 µM.

Molecule `O=C(CC1(O)C(=O)Nc2ccc(Br)cc21)c1ccc(Cl)s1` (stereo not drawn) displayed an IC50 of more than 10.4 µM.

For the molecule `Cc1ccc(C(CNC(=O)c2ccc(Br)cc2)N2CCCC2)cc1` (stereo not drawn), the IC50 was more than 10.4 µM.

With `CCOC(=O)c1ccc(Nc2ncnc3c2cnn3-c2ccc(C)cc2C)cc1`, the IC50 is more than 10.4 µM.

For `CCOC(=O)c1nc(Nc2cc(Cl)c(OC)cc2OC)c2ccccc2n1`, the IC50 was more than 10.4 µM.

On to `COc1ccc(Nc2nc(N3CCN(C)CC3)nc3c2cnn3C)cc1Cl`, for which the IC50 is more than 10.4 µM.

As to `O=C(CCn1nnc2ccccc21)N/N=C/c1cc(Br)ccc1O`, the IC50 is more than 10.4 µM.

`O=C(Nc1nc(NC(=O)c2ccco2)n(-c2ccccc2)n1)c1ccccc1` had an IC50 of more than 10.4 µM.

In the case of `CCC(CO)NCC(O)Cn1c2ccc(Cl)cc2c2cc(Cl)ccc21` (stereo not drawn), the IC50 was more than 10.4 µM.

For the molecule `Cc1ccc(Nc2nc3c(N)nnc(N)c3nc2Nc2ccc(C)cc2)cc1`, the IC50 is more than 10.4 µM.

Values taken from ChEMBL document CHEMBL2094269, “WEHI/Eskitis Trypanosoma b. brucei screening data”.
